Assays:
[1] = test system: nf1+/− mice; test: Water maze test (spatial learning); assay type: in vivo, mouse
Excerpt: The basic protocol for the water maze experiments has been previously described. Mice from the 129T2/SvEmsJ-C57B/6N F1 genetic background were given two trials per day (30-s inter-trial intervals) with a probe trial (60 s) at the end of training day 5 and 7.
Spatial problems are among the most common cognitive deficits in individuals affected with NF1. […] Mice were trained with two trials per day.
In the probe trials the platform was removed from the pool and the mice were allowed to search for it for 60 seconds.

[2] = test system: phosphorylated p44/42 MAPK; test: Western blot for p44/42 MAP kinase phosphorylation in hippocampal extracts of treated mice
[3] = test system: hippocampal slices of nf1+/− mice; test: Hippocampal LTP at the Schaffer collateral/CA1 synapse in slices from treated mice; assay type: in vivo, mouse; conditions: 10 mg/kg s.c. once per day for 4 days
[4] = test system: p21Ras-GTP; test: p21Ras activity assay (GST-Raf1-RBD pull-down) in hippocampal extracts of treated mice
[5] = test system: nf1+/− mice; test: Lateralized reaction time task (attention); assay type: in vivo, mouse; conditions: 10 mg/kg oral pellets daily, target stimulus duration 0.5 sec
Excerpt: Mice were fed 1.5 gm of chow every day in their home cages (1 hr after experiment). […] Mice were trained in miniaturized versions of a “5-choice” box (Med Associates Inc., St Albans Vt.) that was equipped with a curved wall with horizontal array five apertures that could be internally illuminated. The opposite wall was fitted with a food receptacle where pellets were delivered as reinforcers. The animals were shaped to produce a “poke and hold” response in the central aperture. A correct response was scored when the animals correctly poked a side aperture that had been indicated during the poke and hold response. […] When animals performed at 75% accuracy at 1 second target stimulus duration they entered the test phase. Mice were tested on a variable duration condition in which the target aperture was illuminated for 0.5, 1.0 or 2.0 sec (varied from trial to trial within the session). Correct responses/total trials were measured, which vary as a function of the target stimulus duration and was therefore analyzed with repeated measures analysis of variance (the repeated measure being stimulus duration).
Besides spatial impairments, NF-1 patients also show attention deficits. […] For this purpose, a lateralized reaction-time task, a test that measures divided visuo-spatial attention, was used. […]

[6] = test system: nf1+/− mice; test: Prepulse inhibition; assay type: in vivo, mouse
Experimental: Following an acclimation period of 5 min, mice were presented with a total of 20 noise bursts (40 ms duration, 120 dB, <1 ms rise/fall time). In the prepulse inhibition phase, mice were presented with a total of 90 trials. Three prepulse intensities were tested: 70, 75 and 80 dB. Prepulses were 20 ms in duration with a rise/fall time of less than 1 ms. For each prepulse intensity, there were three types of trial: prepulse alone, prepulse/startle stimulus and startle stimulus alone. In the prepulse/startle stimulus trial, the onset of the prepulse preceded the onset of the startle stimulus by 100 ms. Background noise levels were maintained at 68 dB throughout testing, and the trials were spaced […].
This task assays sensory “gating” of environmental stimuli. A powerful and sudden acoustic stimulus will elicit a whole body startle response. When the startle producing stimulus is preceded by a weak pre-stimulus (by approximately 100 milliseconds) the startle response is inhibited in normal persons and animals. Previous studies show a high incidence of ADHD in NF1 and support an association between ADHD and learning problems in these children.

**Q.** `CC[C@H](C)C(=O)O[C@H]1C[C@@H](C)C=C2C=C[C@H](C)[C@H](CC[C@@H]3C[C@@H](O)CC(=O)O3)[C@H]21` [lovastatin] was tested. Which “proximity to exact platform position versus opposite position, probe trial” value ([1]; WT mice on lovastatin, t19=2.159, P<0.05) did it give?
**A.** searched closer to the exact platform position than to the opposite position in the pool

**Q.** And the “cognitive function in control mice” value ([1]; dose effective in nf1+/− mice (10 mg/kg))?
**A.** did not affect cognitive function in control mice

**Q.** What about the “proximity to exact platform position versus opposite position, probe trial” value ([1]; nf1+/− mice on lovastatin, t20=2.170, P<0.05) of the same molecule?
**A.** searched closer to the exact platform position than to the opposite position in the pool

**Q.** And the “time spent in training quadrant, day 7 probe trial, versus WT” value ([1]; nf1+/− mice, 10 mg/kg s.c. 3 days before training then 6 hours before training daily, P=0.862)?
**A.** spent as much time as WTs in the training quadrant

**Q.** And the “time spent in training quadrant, day 7 probe trial, versus mutants given placebo” value ([1]; nf1+/− mice, 10 mg/kg s.c., P<0.05)?
**A.** significantly more time than mutants given placebo

**Q.** And the “amount of phosphorylated p44/42 MAPK (the active form) in hippocampus” value ([2]; WT mice, 0-50 mg/kg s.c. once per day for 4 days, 6 hours after final injection)?
**A.** decreased the amount of phosphorylated p44/42 MAPK (the active form) in a dose-dependent fashion

**Q.** And the “levels of phosphorylated p44/42 MAPK in hippocampus” value ([2]; nf1+/− mice, 10 mg/kg s.c. once per day for 4 days)?
**A.** decreased the levels of phosphorylated p44/42 MAPK

**Q.** What about the “LTP deficits of nf1+/− mice” value [3] of the same molecule?
**A.** completely reversed the LTP deficits

**Q.** What about the “amount of LTP induced, versus WT” value ([3]; nf1+/− mice, PLSD P=0.602) of the same molecule?
**A.** equivalent to that of WTs

**Q.** And the “amount of LTP induced, versus untreated nf1+/− mutants” value ([3]; nf1+/− mice, five theta-burst stimulation, PLSD P<0.05)?
**A.** significantly higher than that induced in mutants

**Q.** What about the “hippocampal levels of p21Ras-GTP” value ([4]; WT as printed in b156 (FIG. 1c)) of the same molecule?
**A.** decreased the hippocampal levels of p21Ras-GTP in WT

**Q.** And the “active p21Ras (p21Ras-GTP)” value ([4]; nf1+/− mice, FIG. 1c legend)?
**A.** decreased active p21Ras (p21Ras-GTP)

**Q.** What about the “correct response rate, versus nf1+/− given placebo” value ([5]; PLSD P<0.05) of the same molecule?
**A.** significantly higher

**Q.** And the “correct response rate, versus WT mice” value ([5]; PLSD P=0.148)?
**A.** indistinguishable from that of WT mice

**Q.** What about the “PPI performance, main effect of treatment” value ([6]; 10 mg/kg oral pellets daily, F1,30=6.61, P<0.05) of the same molecule?
**A.** resulted in an increase in performance

**Q.** What about the “PPI performance, versus WT animals on placebo” value ([6]; nf1+/− animals on lovastatin, PLSD P=0.877) of the same molecule?
**A.** indistinguishable from that of WT animals on placebo
